How the values were obtained:
[1] = system: hepatic tumor; test: Paper example: CS-MRI guided chemical ablation of a hepatic tumor; settings: for outcome of chemical ablation therapy: hepatic tumor, slow injection under CS-MRI
Method: (§1) An MR-compatible needle is advanced into the lesions to introduce the ablation agent.
(§2) A patient presents for ethanol ablation therapy of a hepatic tumor. The patient is prepared by placement on the MRI scanner platform and the spectrometer is calibrated for ^13C-labeled ethanol using standard T1 and T2-weighted imaging. An MR-compatible needle is advanced into the lesions to introduce the ablation agent. Dynamic two-dimensional, chemical shift MRI is performed during the slow injection of ^13C-labeled ethanol. The distribution of ^13C-labeled ethanol is then directly visualized using chemical shift MRI.
as §2, with “hot saline” for “ethanol”, “^23Na-labeled saline” for “^13C-labeled ethanol”, “^23Na-labeled saline.” for “^13C-labeled ethanol.”

[2] = system: multifocal hepatoma; settings: Patient 3, post-injection, signal low in intensity
[3] = system: calf liver; settings: calf liver ex vivo, 8 cc glacial acetic acid injected by hand over 2 minutes
Source text: An MRI-compatible, 10 cm, 22-gauge needle was inserted into a calf liver that was placed in a transmit/receive birdcage coil. […] The offset frequency of the chemical saturation pulse was set at 170 Hz. […] A complete 3D data set was acquired every 15 seconds. Scanning parameters were: 20 degree flip angle, TE=4.2 msec, TR=34 msec, matrix=256×128×4, 1 signal average, and 32 kHz receiver bandwidth. A total of 15 temporal phases was acquired, each with approximately 15 second time resolution.
The time after injection appears in seconds in the lower left corner of each frame.

[4] = system: unresectable hepatocellular carcinoma
Method: After obtaining standard T1 and T2-weighted imaging, an MR-compatible 10 cm long, 22-gauge needle was advanced into the lesions. Baseline imaging was performed using a water-suppressed two-dimensional spoiled gradient-echo pulse sequence. […] The scanning parameters were: 30 degree flip angle, TE=4.2 msec, TR=34 msec, 34-38 cm field-of-view, ±16 kHz receiver bandwidth, 256×128 matrix, and 7 mm slice thickness.

[5] = system: renal tumor
Source text: as §1

[6] = system: prostate tumor
Source text: as §1

[7] = system: lung tumor
Source text: as §1

[8] = system: breast tumor
Source text: as §1

[9] = system: hepatocellular carcinoma less than about 3 cm; settings: randomized, controlled trial, patients with hepatocellular carcinoma less than about 3 cm; cited from earlier work

^13C-labeled acetic acid
outcome of chemical ablation therapy [1]: successful in destroying the tumor

CCO [ethanol]
distribution of the agent on CS-MRI [2]: focal signal accumulation due to ethanol injection is observed

^13C-labeled ethanol
outcome of chemical ablation therapy [1]: successful in destroying the tumor
damage to surrounding tissues ([1]; in vivo): without damage to surrounding tissues

CC(=O)O [acetic acid]
distribution of the agent at the injection site on CS-MRI [3]: focal accumulation of acetic acid adjacent to the needle tip
size of the lesion versus distribution of the agent ([4]; Patient 2): closely matches
extra-hepatic extravasation of the agent ([4]; in vivo): No extra-hepatic extravasation of the agent is observed
outcome of chemical ablation therapy [5]: successful in destroying the tumor
outcome of chemical ablation therapy [6]: successful in destroying the tumor
outcome of chemical ablation therapy [7]: successful in destroying the tumor
outcome of chemical ablation therapy [8]: successful in destroying the tumor
effectiveness of ablation compared with ethanol ablation [9]: more effective than ethanol ablation

— patent US20040166062A1, “Ablation therapy using chemical shift magnetic resonance imaging” (priority 2003, published 2004)
